Laboratory results: patent publication US20220347175A1, “PYRIDAZINONE DERIVATIVE” (Sumitomo Dainippon Pharma Co., Ltd., priority 2018, published 2022)
Read-outs that look alike come from different tables or passages of the source.

Target: T1, human Nav1.1 (Homo sapiens, UniProt P35498)
T1 construct: host or cells: HEK293
Assay: Amplification of Nav1.1-derived voltage-dependent sodium current (Nav1.1 current), cell line stably expressing human Nav1.1, automated patch clamp
Format: cell-based
Settings: for activation at 10 µM / activation at 1 µM: read-out: Nav1.1 current amplification rate (%)
Procedure: Test 1: Evaluation of the Amplification of Nav1.1-Derived Voltage-Dependent Sodium Current (Nav1.1 Current) by Using a Cell Line Stably Expressing Human Nav1.1
(1) Preparation of Test Compounds
Test compounds were prepared by dissolving in DMSO at 200 times of the concentration at evaluation, and diluting the obtained solution to twice the concentration of evaluation with an extracellular fluid (135 mmol/L NaCl, 4 mmol/L KCl, 1 mmol/L MgCl2, 5 mmol/L CaCl2, 5 mmol/L Glucose, 10 mmol/L HEPES).
(2) Induction and Measurement of Nav1.1 Current
A HEK293 cell line stably expressing human Nav1.1 (cat #CYL3009, Millipore, USA, Human Embryonic Kidney 293) was purchased, and used in the present test. Nav1.1 current was induced by stimulating Ramp wave voltage. Detection of current which accompanied with the stimulation of voltage was carried out by a patch-clamp voltage-clamp method using HTS automated patch clamp system (SynchroPatch 768PE, Nanion Technologies GmbH, Germany). Only cells with more than 500 pA of voltage-dependent sodium channel current were used for the evaluation of the activity of compounds on Nav1.1 current because there was the possibility that currents derived from endogenous voltage-dependent sodium channels accounted for large proportion in cells with less than 500 pA of voltage-dependent sodium channel current which was induced by stimulating Ramp wave voltage.
(3) Pharmacologic Effect on Nav1.1 Current
The effect of test compounds on the amplification of Nav1.1-derived voltage-dependent sodium current was evaluated by using a cell line stably expressing human Nav1.1 and HTS automated patch clamp system. In other words, test compounds were added in an extracellular fluid containing 1% DMSO, and evaluated as a change of the peak value of Nav1.1 current and the area under the curve (AUC).
(4) Method for Pharmacological Evaluation
The Nav1.1 current amplification rates of test compounds were calculated by the following formula:
Nav1.1 current amplification rate (%)=100×[the peak value of Nav1.1 current or the area under the curve after the addition of test compounds]/[the peak value of Nav1.1 current or the area under the curve before the addition of test compounds]−100

[1] = compound 50 μmol/L, HEK293 stably expressing human Nav1.1
[2] = 10 μmol/L compound (Test Result 5)
[3] = concentration of each compound 1 μmol/L (Test Result 6)
[4] = Concentration 1 μM (Test Result 7)

Cc1cc2nc(NC(=O)Cn3nc(C4=CCC(C)CC4)ccc3=O)ccn2n1 (racemic) [Example 340]
Nav1.1 current amplification rate (%) [1]: 41%

N#Cc1ccc(NC(=O)Cn2nc(C3=CCC(F)(F)CC3)ccc2=O)cc1 [Example 37, N-(4-Cyanophenyl)-2-[3-(4,4-difluorocyclohex-1-en-1-yl)-6-oxopyridazin-1(6H)-yl]acetamide]
activation at 10 µM [2]: 93%

Cc1nc(N2CCN(C(=O)Cn3nc(C4=CCC(C)CC4)ccc3=O)CC2)no1 (stereo not shown) [Example 406]
Nav1.1 current amplification rate (%) [1]: 68%

CC1CC=C(c2ccc(=O)n(CC(=O)N3CC=C(c4cccnc4)C3)n2)CC1 (racemic) [Example 386]
Nav1.1 current amplification rate (%) [1]: 126%

CC1CC=C(c2ccc(=O)n(CC(=O)N3CC=C(c4ccncc4)CC3)n2)CC1 (stereo not shown) [Example 419]
Nav1.1 current amplification rate (%) [3]: 66%

CC1CC=C(c2ccc(=O)n(CC(=O)Nc3ccc(CO)nc3)n2)CC1 (racemic) [Example 376]
Nav1.1 current amplification rate (%) [2]: 44%

CC1CC=C(c2ccc(=O)n(CC(=O)N3CCN(Cc4cccnc4)CC3)n2)CC1 (racemic) [Example 393]
Nav1.1 current amplification rate (%) [2]: 19%

O=C(Cn1nc(C2=CCCCC2)ccc1=O)N1CCc2c(CN3CCOCC3)cccc21 [Example 519]
activation at 1 µM [3]: 135%

CC1CC=C(c2ccc(=O)n(CC(=O)Nc3ccnc(C4=CCN(C)C4)c3)n2)CC1 (racemic) [Example 371]
Nav1.1 current amplification rate (%) [1]: 64%

CC1CC=C(c2ccc(=O)n(CC(=O)Nc3cncc(CN(C)C)c3)n2)CC1 (racemic) [Example 365]
Nav1.1 current amplification rate (%) [1]: 32%

COC1CCN(c2nccc3c2CCN3C(=O)Cn2nc(C3=CCC(C)CC3)ccc2=O)CC1 (racemic) [Example 309]
Nav1.1 current amplification rate (%) [3]: 71%

CN(c1ccc(=O)n(CC(=O)Nc2ccn3ncnc3c2)n1)C1CC1 [Example 558]
activation at 10 µM (Concentration 10 μM (Test Result 7)): 11%

CC1CCN(c2ccc(=O)n(CC(=O)Nc3ccc(C#N)cc3)n2)C1 (stereo not shown) [Example 19]
Nav1.1 current amplification rate (%) [2]: 98%

CN(c1ccc(=O)n(CC(=O)N2CCc3c(N4CCOCC4)cccc32)n1)C1CC2(CC2)C1 [Example 570]
activation at 1 µM [4]: 99%

CC1CC=C(c2ccc(=O)n(CC(=O)Nc3cnc4c(cnn4C)c3)n2)CC1 (racemic) [Example 348]
Nav1.1 current amplification rate (%) [3]: 57%

N#Cc1ccc(NC(=O)Cn2nc(N3CCC4(CC4)C3)ccc2=O)cc1 [Example 25]
Nav1.1 current amplification rate (%) [2]: 163%

CC1(C)CC=C(c2ccc(=O)n(CC(=O)Nc3ccc(C#N)cc3)n2)CC1 [Example 42]
Nav1.1 current amplification rate (%) [2]: 216%

CC1CC=C(c2ccc(=O)n(CC(=O)Nc3ccc4cncn4c3)n2)CC1 (racemic) [Example 344]
Nav1.1 current amplification rate (%) [3]: 69%

COC1CCN(c2ccc(=O)n(CC(=O)Nc3ccc(C#N)cc3)n2)CC1 [Example 9]
Nav1.1 current amplification rate (%) [2]: 11%

N#Cc1ccc(NC(=O)Cn2nc(N3CCCC4(CC4)C3)ccc2=O)cc1 [Example 20]
Nav1.1 current amplification rate (%) [2]: 152%

CC1CC=C(c2ccc(=O)n(CC(=O)Nc3cnc4nccn4c3)n2)CC1 (racemic) [Example 337]
Nav1.1 current amplification rate (%) [3]: 52%

CC1CCN(c2ccc(=O)n(CC(=O)Nc3ccc(C#N)cc3)n2)CC1 [Example 1, N-(4-cyanophenyl)-2-[3-(4-methylpiperidin-1-yl)-6-oxopyridazin-1(6H)-yl]acetamide]
activation at 10 µM [2]: 246%

CC1C=C(c2ccc(=O)n(CC(=O)Nc3ccc(C#N)cc3)n2)CC(C)O1 (stereo not shown) [Example 49]
Nav1.1 current amplification rate (%) [2]: 2%

CC1CC=C(c2ccc(=O)n(CC(=O)Nc3ccc4ncccc4c3)n2)CC1 (stereo not shown) [Example 546]
activation at 1 µM [4]: 59%

CC1CC=C(c2ccc(=O)n(CC(=O)Nc3ccc4cccnc4c3)n2)CC1 (stereo not shown) [Example 543]
activation at 1 µM [4]: 154%

Cc1cc(=O)n(CC(=O)Nc2ccc3ncnn3c2)nc1C1=CCC(C)CC1 (stereo not shown) [Example 501]
activation at 1 µM [3]: 33%

CC1CC=C(c2ccc(=O)n(CC(=O)N3CCc4c3ccnc4C3=CCOC3)n2)CC1 (racemic) [Example 284]
Nav1.1 current amplification rate (%) [3]: 91%

N#Cc1ccc(NC(=O)Cn2nc(N3CCC4(CCC4)CC3)ccc2=O)cc1 [Example 26]
Nav1.1 current amplification rate (%) [2]: 364%

Cc1ncc(-c2cncc(NC(=O)Cn3nc(C4=CCC(C)CC4)ccc3=O)c2)o1 (racemic) [Example 380]
Nav1.1 current amplification rate (%) [3]: 82%

CC1CC=C(c2ccc(=O)n(CC(=O)Nc3ccnc(CO)c3)n2)CC1 (racemic) [Example 370]
Nav1.1 current amplification rate (%) [2]: 35%

CC1CC=C(c2ccc(=O)n(CC(=O)Nc3ccc4ccncc4c3)n2)CC1 (stereo not shown) [Example 544]
activation at 1 µM [4]: 208%

CC1CC=C(c2ccc(=O)n(CC(=O)N3CCN(Cc4ccncc4)CC3)n2)CC1 (racemic) [Example 392]
Nav1.1 current amplification rate (%) [2]: 53%

CC1(C)CCC(c2ccc(=O)n(CC(=O)Nc3ccc(C#N)cc3)n2)CC1 [Example 38, N-(4-Cyanophenyl)-2-[3-(4,4-dimethylcyclohexyl)-6-oxopyridazin-1(6H)-yl]acetamide]
activation at 10 µM [2]: 174%

CC1CC=C(c2ccc(=O)n(CC(=O)Nc3cccc(N4CCOCC4)c3)n2)CC1 (stereo not shown) [Example 549]
activation at 1 µM [4]: 33%

CC1CC=C(c2ccc(=O)n(CC(=O)Nc3cnc4ccccc4n3)n2)CC1 (stereo not shown) [Example 548]
activation at 1 µM [4]: 41%

Cc1ccc(Oc2ccc(=O)n(CC(=O)N3CCc4c(-c5ccnnc5)cccc43)n2)cc1 [Example 529]
activation at 1 µM [3]: 43%

O=C(Cn1nc(N2CCC3(CCC3)C2)ccc1=O)Nc1ccn2ncnc2c1 [Example 230]
activation at 1 µM [3]: 33%

CC1CC=C(c2ccc(=O)n(CC(=O)N3CCc4c(C=C5CCNCC5)cccc43)n2)CC1 (racemic) [Example 293]
Nav1.1 current amplification rate (%) [1]: 55%

N#Cc1ccc(NC(=O)Cn2nc(N3CCC(F)(F)CC3)ccc2=O)cc1 [Example 5]
Nav1.1 current amplification rate (%) [2]: 6%

CC1CC=C(c2ccc(=O)n(CC(=O)N3CCc4c(CNC5CCC5)cccc43)n2)CC1 (racemic) [Example 315]
Nav1.1 current amplification rate (%) [3]: 19%

CC1CC=C(c2ccc(=O)n(CC(=O)NC3CCN(c4ccccc4)CC3)n2)CC1 (racemic) [Example 368]
Nav1.1 current amplification rate (%) [2]: 18%

CC1CC=C(c2ccc(=O)n(CC(=O)N3CCc4c3ccc(F)c4-c3ccnnc3)n2)CC1 (racemic) [Example 295]
Nav1.1 current amplification rate (%) [3]: 95%

CC1CC=C(c2ccc(=O)n(CC(=O)Nc3cncc(C4=COCCC4)c3)n2)CC1 (racemic) [Example 382]
Nav1.1 current amplification rate (%) [3]: 13%

N#Cc1ccc(NC(=O)Cn2nc(N3CCC4(CCCO4)CC3)ccc2=O)cc1 [Example 29]
Nav1.1 current amplification rate (%) [2]: 20%

CC1CC=C(c2ccc(=O)n(CC(=O)N3CCc4c3ccnc4C3=CCNC3)n2)CC1 (racemic) [Example 281]
Nav1.1 current amplification rate (%) [2]: 40%

N#Cc1ccc(NC(=O)Cn2nc(N3CCCC(C(N)=O)C3)ccc2=O)cc1 (stereo not shown) [Example 8]
Nav1.1 current amplification rate (%) [2]: 4%
